Source: patent publication US20240226078A9, “ENHANCEMENT OF MICROFRACTURE FOR REPAIRING CARTILAGE DEFECTS VIA WNT INHIBITION” (University of Pittsburgh - Of the Commonwealth System of …, priority 2021, published 2024)
Converted amounts (≈) assume the structure as drawn.

Columns and labels:
[1] = tested on: human bone marrow-derived stem cell (hBMSC)-derived cartilage; experiment: COL1 expression and deposition in hBMSC-derived cartilage under Wnt inhibition (gene expression, immunofluorescence); type: cell-based
Description: FIG. 1 illustrates a comparison of COL1 gene expression in Control and Wnt inhibition (Optimized) group. […] B) Collagen type 1 detection by immunofluorescence. Control group (i-iii); Optimized group (iv-vi). […] Bar −50 μm. […] In general, as used herein small molecule (therapeutic) compounds may, for example, have a molecular weight below 1.5 kDa or below 1.0 kDa.

[2] = single intraarticular injection; cited from earlier work
OA progression in rats = conditions: intraarticular, 0.3 μg dissolved in 50 μl saline (~12 nM); cited from earlier work
hBMSC = conditions: lorecivivint alone, cited from earlier work
[3] = tested on: hBMSCs/blood clot construct; experiment: In vitro MFx model: chondrogenesis of hBMSCs/blood clot construct; type: cell-based, human; conditions: expected
Description: The cause of post-Mfx fibrocartilage formation remains unclear. An in vitro model hereof may be used to simulate post-MFx tissue remodeling for further study and/or optimization of methodologies hereof Since harvesting human post-MFx clots is not feasible, as one of the initial steps toward human studies/clinical trials, one may simulate such a post-MFx clot by encapsulating stem cells such as hBMSCs within a clot derived from human peripheral blood as described herein. Optimization studies hereof may thus proceed via such a novel in vitro model which simulates post-MFx fibrocartilage formation (see FIG. 3) and assess treatment efficacy. As illustrated schematically in FIG. 4, to mimic the post-MFx clot, stem cells such as human bone marrow-derived stem cells (hBMSCs), the likely progenitor cells contributing to MFx repair, are encapsulated within clots derived from human peripheral blood. hBMSCs/blood clot may be differentiated using, for example, a chondroinductive factor such as insulin growth factor-1 (IGF-1), one of the major synovial fluid chondroinductive factors. The hBMSCs/blood clot may, for example, be induced to differentiate into fibrocartilage upon stimulation by IGF-1 (and/or other chondroinductive factor(s)), at physiological concentration. Application of Wnt inhibitors such lorecivivint in the model allows study of the augmentation of chondrogenesis and/or reduction of fibrosis. The hBMSCs/blood clot is thereby induced to differentiate into fibrocartilage upon such stimulation. Lorecivivint and/or other Wnt inhibitor are added to the clot to study the augmentation of chondrogenesis and reduction of fibrosis.
B. In vitro model—chondrogenesis of hBMSCs/blood clot construct. hBMSCs/blood clots may, for example, be cultured in differentiation medium containing either 0, 10, 20, 50, or 100 ng/ml IGF-1. Lorecivivint may be introduced using the concentrations described above
Preparation of hBMSCs/blood clot construct. […]

[4] = cited from earlier work
[5] = tested on: in vitro-expanded human chondrocytes; experiment: Western blot analysis of human chondrocytes treated for 3 days; type: cell-based; conditions: vs saline control (FIG. 2)
Description: FIG. 2 illustrates Western blot analysis for human chondrocytes treated with saline control (CON) and lorecivivint (LRC) for 3 days.
In that regards, FIG. 3 illustrates post-MFx events including: A) clot formation; B) stem cell migration, C) fibrogenesis, D) chondrogenesis and bone healing, and E) degeneration. To facilitate rapid clinical translation, it is desirable to repurpose clinically proven. human-safe Wnt inhibitors. Specifically, the Wnt inhibitor lorecivivint (SM04690), which suppresses CDC-like kinase 2 (CLK2) and dual-specificity tyrosine phosphorylation-regulated kinase 1A (DYRK1A) as well as Wnt/β-catenin signaling, has shown promising results for knee osteoarthritis as discussed above. […] The reparative outcome of Wnt- (for example, lorecivivint-) enhanced MFx provides an avenue to achieve long-term hyaline cartilage repair with a minimally invasive and cost-effective procedure, unattainable by current surgical procedures.

humans = conditions: cited from earlier work

SMILES: Oc1nc(-c2ccc(C(F)(F)F)cc2)nc2c1CSCC2 [XAV939]
- chondrogenesis [1]: without impairing chondrogenesis
- COL1 expression ([1]; compared to controls (FIG. 1A), p<0.05): significantly lowers
- COL1 protein deposition ([1]; immunofluorescence, compared to controls (FIG. 1B)): significantly lowers

SMILES: CC(C)CC(=O)Nc1cncc(-c2ccc3[nH]nc(-c4nc5cncc(-c6cccc(F)c6)c5[nH]4)c3c2)c1 [lorecivivint]
- knee joint residence time [2]: > 180 days
- OA progression (OA progression in rats): significantly ameliorates
- COL1 expression (hBMSC; hBMSC chondrogenesis): minimal
- initiation of hBMSC chondrogenesis (hBMSC): sufficient to initiate hBMSC chondrogenesis
- COL1 immunostaining ([3]; treated constructs): absent or localized only to the marginal regions
- COL1, 3, FN, α-SMA expression levels ([3]; vs untreated group): significantly lower
- COL2, AGG, SOX9, COMP, PRG4, and COL2/COL1 expression levels ([3]; vs untreated group): higher than untreated group
- solubility [4]: ~5 mM (≈ 2530 µg/mL)
- COL1 expression [5]: significantly reduced
- safety of injection (humans): safe
